From patent US9499550B2 (BRISTOL-MYERS SQUIBB COMPANY, priority 2012, dated 2016)

Legend:
[1] = system: HCV genotype 1a (H77 strain) replicon in HUH-7 cells; test: HCV replicon luciferase reporter assay, genotype 1a; type: cell-based; details: Hepatitis C virus, Huh-7, 72 h, HCV genotype 1a replicon luciferase assay, 3 days incubation, range class, read-out: LE_1a (EC50, range)
Outline: (§1)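 Replicon inhibition for both genotypes was measured as Renilla luciferase signal (EnduRen, 7.5 μM final, 2 h) after 3-day, 37° C exposure of replicon-bearing HUH-7 cells in 4% FCS DMEM, 0.5% DMSO. The 1b construct carries S1179I; the 1a H77 construct carries P1496L and S2204I. Twenty-point, 3-fold dilutions were fitted four-parametrically for EC50, and CC50 was taken from multiplexed Cell Titer-Blue.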

[2] = system: HCV genotype 1b (Con1) replicon in HUH-7 cells; test: HCV replicon luciferase reporter assay, genotype 1b; type: cell-based; details: Hepatitis C virus, Huh-7, 72 h, HCV genotype 1b replicon luciferase assay, 3 days incubation, range class, read-out: LE_1b (EC50, range)
Outline: as §1

| SMILES | EC50 [1] [nM] | EC50 [2] [nM] |
| --- | --- | --- |
| COCCn1nc(O[C@@H]2C[C@H]3C(=O)N[C@]4(C(=O)NS(=O)(=O)C5(C)CC5)C[C@H]4/C=C\CC[C@@H](C)C[C@@H](C)[C@H](NC(=O)OC(C)(C)C(C)(F)F)C(=O)N3C2)c2ccccc2c1=O [Compound 1020, 3,3-difluoro-2-methylbutan-2-yl((2R,6S,7R,9R,13aS,14aR,16aS,Z)-2-((3-(2-methoxyethyl)-4-oxo-3,4-dihydrophthalazin-1-yl)oxy)-7,9-dimethyl-14a-(((1-methylcyclopropyl)sulfonyl)carbamoyl)-5,16-dioxo-1,2,3,5,6,7,8,9,10,11,13a,14,14a,15,16,16a-hexadecahydrocyclopropa[e]pyrrolo[1,2-a][1,4]diazacyclopentadecin-6-yl)carbamate] | 4.82 to 103 | 4.82 to 103 |
| COCCn1nc(O[C@@H]2C[C@H]3C(=O)N[C@]4(C(=O)NS(=O)(=O)C5CC5)C[C@H]4/C=C\CC[C@H](C)C[C@@H](C)[C@H](NC(=O)OC(C)(C)C(F)(F)F)C(=O)N3C2)c2ccccc2c1=O [Compound 1021, 1,1,1-trifluoro-2-methylpropan-2-yl((2R,6S,7R,9S,13aS,14aR,16aS,Z)-14a-((cyclopropylsulfonyl)carbamoyl)-2-((3-(2-methoxyethyl)-4-oxo-3,4-dihydrophthalazin-1-yl)oxy)-7,9-dimethyl-5,16-dioxo-1,2,3,5,6,7,8,9,10,11,13a,14,14a,15,16,16a-hexadecahydrocyclopropa[e]pyrrolo[1,2-a][1,4]diazacyclopentadecin-6-yl)carbamate] | > 87.4 | > 87.4 |
| COCCn1nc(O[C@@H]2C[C@H]3C(=O)N[C@]4(C(=O)NS(=O)(=O)C5CC5)C[C@H]4/C=C\CC[C@@H](C)C[C@@H](C)[C@H](NC(=O)OC(C)(C)C(F)(F)F)C(=O)N3C2)c2ccccc2c1=O [Compound 1022, 1,1,1-trifluoro-2-methylpropan-2-yl((2R,6S,7R,9R,13aS,14aR,16aS,Z)-14a-((cyclopropylsulfonyl)carbamoyl)-2-((3-(2-methoxyethyl)-4-oxo-3,4-dihydrophthalazin-1-yl)oxy)-7,9-dimethyl-5,16-dioxo-1,2,3,5,6,7,8,9,10,11,13a,14,14a,15,16,16a-hexadecahydrocyclopropa[e]pyrrolo[1,2-a][1,4]diazacyclopentadecin-6-yl)carbamate] | 4.82 to 103 | 4.82 to 103 |
| COCCn1nc(O[C@@H]2C[C@H]3C(=O)N[C@]4(C(=O)NS(=O)(=O)C5CC5)C[C@H]4/C=C\CC[C@@H](C)C[C@@H](C)[C@H](NC(=O)OC(C)(C)C(C)(F)F)C(=O)N3C2)c2ccccc2c1=O [Compound 1024, 3,3-difluoro-2-methylbutan-2-yl((2R,6S,7R,9R,13aS,14aR,16aS,Z)-14a-((cyclopropylsulfonyl)carbamoyl)-2-((3-(2-methoxyethyl)-4-oxo-3,4-dihydrophthalazin-1-yl)oxy)-7,9-dimethyl-5,16-dioxo-1,2,3,5,6,7,8,9,10,11,13a,14,14a,15,16,16a-hexadecahydrocyclopropa[e]pyrrolo[1,2-a][1,4]diazacyclopentadecin-6-yl)carbamate] | 4.82 to 103 | 4.82 to 103 |
| C[C@H]1CC/C=C\[C@@H]2C[C@@]2(C(=O)NS(=O)(=O)C2(C)CC2)NC(=O)[C@@H]2C[C@@H](Oc3ncc(OCC(F)F)c4ccccc34)CN2C(=O)[C@@H](NC(=O)OC(C)(C)C)[C@H](C)C1 [Compound 1025, tert-butyl ((2R,6S,7R,9S,13aS,14aR,16aS,Z)-2-((4-(2,2-difluoroethoxyl)isoquinolin-1-yl)oxy)-7,9-dimethyl-14a-(((1-methylcyclopropyl)sulfonyl)carbamoyl)-5,16-dioxo-1,2,3,5,6,7,8,9,10,11,13a,14,14a,15,16,16a-hexadecahydrocyclopropa[e]pyrrolo[1,2-a][1,4]diazacyclopentadecin-6-yl)carbamate] | 4.82 to 103 | < 5.46 |
| C[C@@H]1CC/C=C\[C@@H]2C[C@@]2(C(=O)NS(=O)(=O)C2(C)CC2)NC(=O)[C@@H]2C[C@@H](Oc3ncc(OCC(F)F)c4ccccc34)CN2C(=O)[C@@H](NC(=O)OC(C)(C)C)[C@H](C)C1 [Compound 1026, tert-butyl ((2R,6S,7R,9R,13aS,14aR,16aS,Z)-2-((4-(2,2-difluoroethoxyl)isoquinolin-1-yl)oxy)-7,9-dimethyl-14a-(((1-methylcyclopropyl)sulfonyl)carbamoyl)-5,16-dioxo-1,2,3,5,6,7,8,9,10,11,13a,14,14a,15,16,16a-hexadecahydrocyclopropa[e]pyrrolo[1,2-a][1,4]diazacyclopentadecin-6-yl)carbamate] | < 5.46 | < 5.46 |
| COCCOc1cnc(O[C@@H]2C[C@H]3C(=O)N[C@]4(C(=O)NS(=O)(=O)C5(C)CC5)C[C@H]4/C=C\CC[C@@H](C)C[C@@H](C)[C@H](NC(=O)OC(C)(C)C)C(=O)N3C2)c2ccccc12 [Compound 1027, tert-butyl ((2R,6S,7R,9R,13aS,14aR,16aS,Z)-2-((4-(2-methoxyethoxyl)isoquinolin-1-yl)oxy)-7,9-dimethyl-14a-(((1-methylcyclopropyl)sulfonyl)carbamoyl)-5,16-dioxo-1,2,3,5,6,7,8,9,10,11,13a,14,14a,15,16,16a-hexadecahydrocyclopropa[e]pyrrolo[1,2-a][1,4]diazacyclopentadecin-6-yl)carbamate] | < 5.46 | < 5.46 |
| C[C@@H]1CC/C=C\[C@@H]2C[C@@]2(C(=O)NS(=O)(=O)C2CC2)NC(=O)[C@@H]2C[C@@H](Oc3ncc(OCC(F)F)c4ccccc34)CN2C(=O)[C@@H](NC(=O)OC(C)(C)C)[C@H](C)C1 [Compound 1028, tert-butyl ((2R,6S,7R,9R,13aS,14aR,16aS,Z)-14a-((cyclopropylsulfonyl)carbamoyl)-2-((4-(2,2-difluoroethoxyl)isoquinolin-1-yl)oxy)-7,9-dimethyl-5,16-dioxo-1,2,3,5,6,7,8,9,10,11,13a,14,14a,15,16,16a-hexadecahydrocyclopropa[e]pyrrolo[1,2-a][1,4]diazacyclopentadecin-6-yl)carbamate] | < 5.46 | < 5.46 |
| C[C@H]1CC/C=C\[C@@H]2C[C@@]2(C(=O)NS(=O)(=O)C2(C)CC2)NC(=O)[C@@H]2C[C@@H](Oc3ncc(OCC(F)F)c4ccccc34)CN2C(=O)[C@@H](NC(=O)OC(C)(C)C(F)(F)F)[C@H](C)C1 [Compound 1029, 1,1,1-trifluoro-2-methylpropan-2-yl((2R,6S,7R,9S,13aS,14aR,16aS,Z)-2-((4-(2,2-difluoroethoxyl)isoquinolin-1-yl)oxy)-7,9-dimethyl-14a-(((1-methylcyclopropyl)sulfonyl)carbamoyl)-5,16-dioxo-1,2,3,5,6,7,8,9,10,11,13a,14,14a,15,16,16a-hexadecahydrocyclopropa[e]pyrrolo[1,2-a][1,4]diazacyclopentadecin-6-yl)carbamate] | 4.82 to 103 | 4.82 to 103 |
| C[C@@H]1CC/C=C\[C@@H]2C[C@@]2(C(=O)NS(=O)(=O)C2(C)CC2)NC(=O)[C@@H]2C[C@@H](Oc3ncc(OCC(F)F)c4ccccc34)CN2C(=O)[C@@H](NC(=O)OC(C)(C)C(F)(F)F)[C@H](C)C1 [Compound 1030, 1,1,1-trifluoro-2-methylpropan-2-yl((2R,6S,7R,9R,13aS,14aR,16aS,Z)-2-((4-(2,2-difluoroethoxyl)isoquinolin-1-yl)oxy)-7,9-dimethyl-14a-(((1-methylcyclopropyl)sulfonyl)carbamoyl)-5,16-dioxo-1,2,3,5,6,7,8,9,10,11,13a,14,14a,15,16,16a-hexadecahydrocyclopropa[e]pyrrolo[1,2-a][1,4]diazacyclopentadecin-6-yl)carbamate] | < 5.46 | < 5.46 |
| C[C@H]1CC/C=C\[C@@H]2C[C@@]2(C(=O)NS(=O)(=O)C2CC2)NC(=O)[C@@H]2C[C@@H](Oc3ncc(OCC(F)F)c4ccccc34)CN2C(=O)[C@@H](NC(=O)OC(C)(C)C(F)(F)F)[C@H](C)C1 [Compound 1031, 1,1,1-trifluoro-2-methylpropan-2-yl((2R,6S,7R,9S,13aS,14aR,16aS,Z)-14a-((cyclopropylsulfonyl)carbamoyl)-2-((4-(2,2-difluoroethoxyl)isoquinolin-1-yl)oxy)-7,9-dimethyl-5,16-dioxo-1,2,3,5,6,7,8,9,10,11,13a,14,14a,15,16,16a-hexadecahydrocyclopropa[e]pyrrolo[1,2-a][1,4]diazacyclopentadecin-6-yl)carbamate] | 4.82 to 103 | 4.82 to 103 |
| C[C@@H]1CC/C=C\[C@@H]2C[C@@]2(C(=O)NS(=O)(=O)C2CC2)NC(=O)[C@@H]2C[C@@H](Oc3ncc(OCC(F)F)c4ccccc34)CN2C(=O)[C@@H](NC(=O)OC(C)(C)C(F)(F)F)[C@H](C)C1 [Compound 1032, 1,1,1-trifluoro-2-methylpropan-2-yl((2R,6S,7R,9R,13aS,14aR,16aS,Z)-14a-((cyclopropylsulfonyl)carbamoyl)-2-((4-(2,2-difluoroethoxyl)isoquinolin-1-yl)oxy)-7,9-dimethyl-5,16-dioxo-1,2,3,5,6,7,8,9,10,11,13a,14,14a,15,16,16a-hexadecahydrocyclopropa[e]pyrrolo[1,2-a][1,4]diazacyclopentadecin-6-yl)carbamate] | < 5.46 | < 5.46 |
| COCCOc1cnc(O[C@@H]2C[C@H]3C(=O)N[C@]4(C(=O)NS(=O)(=O)C5CC5)C[C@H]4/C=C\CC[C@@H](C)C[C@@H](C)[C@H](NC(=O)OC(C)(C)C)C(=O)N3C2)c2ccccc12 [Compound 1033, tert-butyl ((2R,6S,7R,9R,13aS,14aR,16aS,Z)-14a-((cyclopropylsulfonyl)carbamoyl)-2-((4-(2-methoxyethoxyl)isoquinolin-1-yl)oxy)-7,9-dimethyl-5,16-dioxo-1,2,3,5,6,7,8,9,10,11,13a,14,14a,15,16,16a-hexadecahydrocyclopropa[e]pyrrolo[1,2-a][1,4]diazacyclopentadecin-6-yl)carbamate] | < 5.46 | < 5.46 |
